IC50 data for 70 compounds are collected here from patent US8278337B2, “Substituted pyridines that are JNK inhibitors” (Merck Sharp & Dohme, priority 2006, dated 2012).

“And” between values parts separate entries of the source, which are not always exact repeats. Identical values can stand only once.

Broadly, the IC50 is the midpoint of a concentration-inhibition curve.

Sequence of JNK1 (P45983 whole entry, species assumed): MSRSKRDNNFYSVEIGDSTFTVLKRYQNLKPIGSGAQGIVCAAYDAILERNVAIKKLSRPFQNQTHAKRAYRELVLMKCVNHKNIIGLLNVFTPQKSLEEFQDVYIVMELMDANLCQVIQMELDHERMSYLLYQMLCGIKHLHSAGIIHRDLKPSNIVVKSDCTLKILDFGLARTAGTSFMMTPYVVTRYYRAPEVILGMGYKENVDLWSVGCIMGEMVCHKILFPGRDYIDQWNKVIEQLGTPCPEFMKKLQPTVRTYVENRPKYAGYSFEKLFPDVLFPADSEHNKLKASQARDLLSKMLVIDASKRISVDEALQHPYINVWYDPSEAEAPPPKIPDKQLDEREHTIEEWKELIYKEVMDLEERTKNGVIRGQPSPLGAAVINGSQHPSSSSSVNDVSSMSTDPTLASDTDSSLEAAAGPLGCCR

One experiment concerns the target JNK1 (Homo sapiens, UniProt P45983). Nature of the experiment: DELFIA kinase assay, JNK1. In kind it is biochemical. To be noted: DELFIA assay, 2 nM JNK1, 7 uM ATP, 10 min pre-incubation; second table; read-out: JNK 1 IC50. Summed up: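 Enzyme (2 nM JNK1) was preincubated 10 min with 0–100 μM compound in HEPES pH 7.3 with 5% DMSO, then reacted 30 min at room temperature with biotinylated GST-ATF2 (6 ug/mL). Final ATP was 7 uM for JNK1, 4 uM for JNK2 and 2 uM for JNK3. Phospho-ATF2 was detected by DELFIA europium fluorescence (ex 340, em 615 nm).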
With `CS(=O)(=O)c1ccc(-n2cc(CNC(=O)c3cccc(C(=O)NC4CCC4)n3)cn2)cc1` [Compound 76], the half-maximal inhibitory concentration (IC50) was determined as 10 nM.

As to `CC(C)NC(=O)c1cccc(C(=O)NCc2cnn(-c3cnc4ccccc4c3)c2)n1` [Compound 144], the IC50 stood at 7 nM.

In the case of `CC(C)NC(=O)c1cccc(C(=O)NCc2cnn(-c3ccc4nccnc4c3)c2)n1` [Compound 151], the IC50 amounted to 13 nM.

Still in this experiment, the particulars now being: DELFIA, biotinylated GST-ATF2 substrate, 10 minute pre-incubation, final ATP 7 uM.
`CC(C)NC(=O)c1cccc(C(=O)NCc2ccc(-c3ccc(F)c(Cl)c3)nc2)n1` [Compound 184] showed an IC50 of 102 to 959 nM.

The compound `CCOC(=O)N1CCC(NC(=O)c2cccc(C(=O)NCCc3ccccc3)n2)CC1` [Compound 45] yielded a half-inhibitory concentration (IC50) of more than 1000 nM.

Consider `CC(C)NC(=O)c1cccc(C(=O)NCc2cccc(-c3ccc(C#N)cc3)c2)n1` [Compound 190], for which the IC50 is 102 to 959 nM.

`CC(C)NC(=O)c1cccc(C(=O)NCc2cncc(-c3ccc(S(C)(=O)=O)cc3)c2)n1` [Compound 255]: the IC50 is 4 to 97 nM.

Turning to `CS(=O)(=O)c1ccc(-n2cc(CNC(=O)c3cccc(C(=O)NC4CCC4)n3)cn2)cc1` [Compound 76], the 50% inhibitory concentration (IC50) is 4 to 19 nM and 4 to 97 nM.

Regarding `CC(C)NC(=O)c1cccc(C(=O)NCc2ccc(-c3ccccc3)cc2)n1` [Compound 112], the half-maximal inhibitory concentration (IC50) lay within 102 to 959 nM.

Regarding `CC(C)NC(=O)c1cccc(C(=O)NCc2cnn(-c3ccc4nc(-c5cccnc5)n(C)c4c3)c2)n1` [Compound 238], the half-inhibitory concentration (IC50) is 4 to 97 nM and 4 to 19 nM.

`CCOC(=O)N1CCC(NC(=O)c2cccc(Nc3ccc4ncccc4c3)n2)CC1` [Compound 389] came in with an IC50 of more than 1000 nM.

The compound `CS(=O)(=O)c1ccc(-n2cc(CNC(=O)c3cccc(-n4cc(-c5ccc(F)cc5)cn4)n3)cn2)cc1` [Compound 296] yielded a half-inhibitory concentration (IC50) of 102 to 959 nM.

In turn, `NC(=O)Nc1cccc(C(=O)NCc2cnn(-c3cccc(C(F)(F)F)c3)c2)n1` [Compound 356] had a half-maximal inhibitory concentration (IC50) of 102 to 959 nM.

In the case of `CS(=O)(=O)c1ccc(CNC(=O)c2cccc(-c3ccccc3F)n2)cc1` [Compound 316], the IC50 is > 1000 nM and 1030 to 10000 nM.

Take `Nc1nc2ccc(CNC(=O)c3cccc(C(=O)NCCO)n3)cc2s1` [Compound 15]: the half-inhibitory concentration (IC50) is more than 1000 nM.

`N#Cc1ccccc1N1CCC(NC(=O)c2cccc(C(=O)NCc3ccc4nc(N)sc4c3)n2)CC1` [Compound 10]: the IC50 was 4 to 97 nM.

As to `CC(C)NC(=O)c1cccc(C(=O)NCc2cnn(-c3cnc4ccccc4c3)c2)n1` [Compound 144], the IC50 was 4 to 19 nM and 4 to 97 nM.

Turning to `CC(C)NC(=O)c1cccc(C(=O)NCc2ccccn2)n1` [Compound 101], the half-inhibitory concentration (IC50) is 1030 to 10000 nM and > 1000 nM.

Take `COC(=O)c1cccc(C2CCN(C(=O)c3cccc(C(=O)NCc4ccc5nc(N)sc5c4)n3)CC2O)c1` (stereo not shown) [Compound 32]: the IC50 is more than 1000 nM.

`CS(=O)(=O)c1ccc(-n2cc(CNC(=O)c3cccc(-n4cccn4)n3)cn2)cc1` [Compound 293] gave an IC50 of 102 to 959 nM.

Consider `CC(C)NC(=O)c1cccc(C(=O)NCc2cnn(-c3cc(Cl)cc(Cl)c3)c2)n1` [Compound 138], for which the IC50 is 4 to 19 nM and 4 to 97 nM.

In turn, `CC(C)NC(=O)c1cccc(C(=O)NCc2cncc(-c3cccc(C#N)c3)c2)n1` [Compound 258] registered a half-inhibitory concentration (IC50) of 4 to 97 nM.

Turning to `CC(C)CNC(=O)c1cccc(C(=O)NCc2ccc3nc(N)sc3c2)n1` [Compound 64], the IC50 is more than 1000 nM.

`CN1CCC(NC(=O)c2cccc(C(=O)NCc3ccc4nc(N)sc4c3)n2)CC1` [Compound 29] displayed an IC50 of more than 1000 nM.

For the compound `CS(=O)(=O)c1ccc(CNC(=O)c2cccc(-c3ccccn3)n2)cc1` [Compound 317], the half-inhibitory concentration (IC50) was > 1000 nM and 1030 to 10000 nM.

For the compound `CC(C)NC(=O)c1cccc(C(=O)NCc2cnn(-c3ccc4cncnc4c3)c2)n1` [Compound 216], the half-maximal inhibitory concentration (IC50) fell in the range of 4 to 97 nM.

For `CC(C)NC(=O)c1cccc(C(=O)NCC2CCN(C(=O)OC(C)(C)C)C2)n1` (stereo not shown) [Compound 95], the IC50 was > 1000 nM and 1030 to 10000 nM.

Regarding `CC(C)NC(=O)c1cccc(C(=O)NCc2ccc(-c3cccc(F)c3)nc2)n1` [Compound 175], the IC50 lay in the range of 4 to 97 nM.

For the compound `CC(C)NC(=O)c1cccc(C(=O)NCc2cnn(-c3ccc4nc(C(F)(F)F)n(C)c4c3)c2)n1` [Compound 234], the 50% inhibitory concentration (IC50) was 4 to 19 nM and 4 to 97 nM.

For `CC(C)NC(=O)c1cc(O)cc(C(=O)NCc2cnn(-c3ccc4nccnc4c3)c2)n1` [Compound 436], the concentration for half-maximal inhibition (IC50) was in the range of 4 to 97 nM.

For `CC(C)NC(=O)c1cccc(C(=O)NCc2cnn(-c3ccc4nccnc4c3)c2)n1` [Compound 151], the IC50 is 4 to 19 nM and 4 to 97 nM.

`CC(C)NC(=O)c1cccc(C(=O)NCc2cccnc2)n1` [Compound 93] gave a concentration for half-maximal inhibition (IC50) of 102 to 959 nM.

As for `CC(C)CNc1cccc(C(=O)NCc2ccc(S(C)(=O)=O)cc2)n1` [Compound 337], the half-maximal inhibitory concentration (IC50) was > 1000 nM and 1030 to 10000 nM.

In turn, `Nc1nc2ccc(CNC(=O)c3cccc(C(=O)N4CCC(O)CC4)n3)cc2s1` [Compound 35] showed an IC50 of more than 1000 nM.

`CC(C)NC(=O)c1cccc(C(=O)NCc2ccc(-c3ccc(Cl)cc3)nc2)n1` [Compound 182] showed an IC50 of 102 to 959 nM.

Regarding `CC[C@@H](CO)NC(=O)c1cccc(C(=O)NCc2ccc3nc(N)sc3c2)n1` [Compound 9], the IC50 lay within 4 to 97 nM.

Regarding `CCOC(=O)N1CCC(NC(=O)c2cccc(NCCc3ccncc3)n2)CC1` [Compound 393], the IC50 was more than 1000 nM.

Turning to `Nc1nc2ccc(CNC(=O)c3cccc(CO)n3)cc2s1` [Compound 63], the IC50 is 1030 to 10000 nM and > 1000 nM.

`CC(C)NC(=O)c1cccc(C(=O)NCc2cnn(-c3ccccc3)c2)n1` [Compound 100] yielded an IC50 of 4 to 97 nM.

`C[C@H](CO)NC(=O)c1cccc(C(=O)NCc2ccc3nc(N)sc3c2)n1` [Compound 49] gave a 50% inhibitory concentration (IC50) of 102 to 959 nM.

The compound `Nc1nc2ccc(CNC(=O)c3cccc(C(=O)NC4CCCCC4)n3)cc2s1` [Compound 12] yielded an IC50 of 4 to 97 nM.

Compound `CC(C)NC(=O)c1cccc(C(=O)NCc2ccc(-c3cc(Cl)cc(Cl)c3)nc2)n1` [Compound 185] had an IC50 of 102 to 959 nM.

For `CC(C)NC(=O)c1cccc(C(=O)NCc2ccc(N3CCCC3=O)cc2)n1` [Compound 120], the half-inhibitory concentration (IC50) was 102 to 959 nM.

`CCNC(=O)c1cc(-c2cccs2)cc(C(=O)NCc2ccc(S(C)(=O)=O)cc2)n1` [Compound 415]: the IC50 was > 1000 nM and 1030 to 10000 nM.

Regarding `CS(=O)(=O)c1ccc(CNC(=O)c2cccc(-n3cccn3)n2)cc1` [Compound 314], the half-inhibitory concentration (IC50) was more than 1000 nM.

`CCOC(=O)N1CCC(NC(=O)c2cccc(Nc3ccccn3)n2)CC1` [Compound 396] registered an IC50 of more than 1000 nM.

In the case of `CS(=O)(=O)c1ccc(CNC(=O)c2cccc(-c3nc4ccccc4[nH]3)n2)cc1` [Compound 376], the concentration for half-maximal inhibition (IC50) lay in the range of 102 to 959 nM.

`CCNC(=O)c1cccc(C(=O)NC2CCN(C(=O)OCC)CC2)n1` [Compound 39] registered an IC50 of more than 1000 nM.

Turning to `Cn1cc(-c2cccc(C(=O)NCc3ccc(S(C)(=O)=O)cc3)n2)cn1` [Compound 333], the IC50 is > 1000 nM and 1030 to 10000 nM.

`CC(C)NC(=O)c1cccc(C(=O)NCc2cnn(-c3ccc(S(=O)(=O)N4CCNCC4)cc3)c2)n1` [Compound 245]: the IC50 was 4 to 19 nM and 4 to 97 nM.

`CC(C)NC(=O)c1cccc(C(=O)NCC2CCN(c3ccc(C#N)cc3)CC2)n1` [Compound 420]: the concentration for half-maximal inhibition (IC50) is > 1000 nM and 1030 to 10000 nM.

For `CC(C)NC(=O)c1cccc(C(=O)NCc2cnn(-c3ccc4nc(C(C)C)n(C)c4c3)c2)n1` [Compound 235], the IC50 is 4 to 19 nM and 4 to 97 nM.

The compound `CCOC(=O)N1CCC(NC(=O)c2cccc(C(=O)NCc3ccc(OC)c(OC)c3)n2)CC1` [Compound 74] had an IC50 of 102 to 959 nM.

For the compound `CC(C)NC(=O)c1cccc(C(=O)NCc2cnn(-c3ccncc3)c2)n1` [Compound 159], the IC50 was in the range of 102 to 959 nM.

For the compound `Cc1cnn(-c2cccc(C(=O)NCc3ccc(S(C)(=O)=O)cc3)n2)c1` [Compound 323], the 50% inhibitory concentration (IC50) was 1030 to 10000 nM and > 1000 nM.

With `Nc1nc2ccc(CNC(=O)c3cccc(C(=O)NCCCn4ccnc4)n3)cc2s1` [Compound 69], the IC50 fell in the range of 102 to 959 nM.

Consider `CC(C)NC(=O)c1cccc(C(=O)NCc2cnn(-c3ccc4nccn4c3)c2)n1` [Compound 210], for which the IC50 lay in the range of 4 to 97 nM.

The compound `CC(C)NC(=O)c1cccc(C(=O)NCc2cncc(-c3cccc(S(C)(=O)=O)c3)c2)n1` [Compound 256] had a concentration for half-maximal inhibition (IC50) of 4 to 97 nM.

With `CC(C)NC(=O)c1cccc(C(=O)NCc2ccc3nc(NCCN4CCOCC4)sc3c2)n1` [Compound 202], the IC50 lay in the range of 4 to 97 nM.

`Nc1nc2ccc(CNC(=O)c3cccc(C(=O)N[C@@H](CO)c4ccccc4)n3)cc2s1` [Compound 54]: the half-inhibitory concentration (IC50) was > 1000 nM and 1030 to 10000 nM.

In the case of `CS(=O)(=O)c1ccc(-n2cc(CNC(=O)c3cccc(-n4cc(-c5cccc(F)c5)cn4)n3)cn2)cc1` [Compound 295], the concentration for half-maximal inhibition (IC50) is 102 to 959 nM.

Compound `CC(C)NC(=O)c1cccc(C(=O)NCc2cnn(-c3ccc(F)c(Cl)c3)c2)n1` [Compound 131] returned an IC50 of 4 to 97 nM.

The compound `CNC(=S)N1CCC(NC(=O)c2cccc(C(=O)NCc3ccc(S(C)(=O)=O)cc3)n2)CC1` [Compound 57] displayed a half-maximal inhibitory concentration (IC50) of 102 to 959 nM.

Turning to `CNC(=O)c1cccc(C(=O)NCc2ccc3nc(N)sc3c2)n1` [Compound 47], the IC50 was more than 1000 nM.

On to `CC(C)NC(=O)c1cccc(C(=O)NCc2cnn(-c3ccc4[nH]cnc4c3)c2)n1` [Compound 148], for which the half-inhibitory concentration (IC50) was 4 to 97 nM.

In turn, `COc1ccc(CNC(=O)c2cccc(C(=O)NC(C)C)n2)cc1OC` [Compound 111] displayed an IC50 of 102 to 959 nM.

Consider `CCOC(=O)N1CCC(NC(=O)c2cccc(NC(=O)Cc3ccc(S(C)(=O)=O)cc3)n2)CC1` [Compound 402], for which the half-maximal inhibitory concentration (IC50) was > 1000 nM and 1030 to 10000 nM.

For the compound `CNS(=O)(=O)c1ccc(-n2cc(CNC(=O)c3cccc(C(=O)NC(C)C)n3)cn2)cc1` [Compound 244], the IC50 is 4 to 19 nM and 4 to 97 nM.

`COc1ccc(-c2cccc(C(=O)NCc3ccc(S(C)(=O)=O)cc3)n2)c(F)c1` [Compound 331] showed an IC50 of 102 to 959 nM.

Turning to `CC(C)NC(=O)c1cccc(C(=O)NCc2ccc(-c3ccc4ncccc4c3)nc2)n1` [Compound 186], the IC50 is 102 to 959 nM.

In turn, `CC(C)NC(=O)c1cccc(C(=O)NCc2ccc(S(N)(=O)=O)cc2)n1` [Compound 98] returned an IC50 of 102 to 959 nM.

Consider `CC(C)NC(=O)c1cccc(C(=O)NCc2cnn(-c3ccc(Cl)cc3)c2)n1` [Compound 133], for which the IC50 is 4 to 97 nM.

On to `C[C@H](CO)NC(=O)c1cc(-c2cccs2)cc(C(=O)NCc2ccc(S(C)(=O)=O)cc2)n1` [Compound 417], for which the half-inhibitory concentration (IC50) was > 1000 nM and 1030 to 10000 nM.
